From ChEMBL document CHEMBL1909046, “DrugMatrix in vitro pharmacology data”

Assays:
[1] = molecular target: T1, Alpha-1B adrenergic receptor (Rattus norvegicus, UniProt P15823); experiment: DRUGMATRIX: Alpha-1B adrenergic receptor radioligand binding (ligand: prazosin); type: cell membranes, Wistar, Liver, Membrane; settings: Not Active = under 50% inhibition at 10 µM
T1 sequence (P15823 whole entry): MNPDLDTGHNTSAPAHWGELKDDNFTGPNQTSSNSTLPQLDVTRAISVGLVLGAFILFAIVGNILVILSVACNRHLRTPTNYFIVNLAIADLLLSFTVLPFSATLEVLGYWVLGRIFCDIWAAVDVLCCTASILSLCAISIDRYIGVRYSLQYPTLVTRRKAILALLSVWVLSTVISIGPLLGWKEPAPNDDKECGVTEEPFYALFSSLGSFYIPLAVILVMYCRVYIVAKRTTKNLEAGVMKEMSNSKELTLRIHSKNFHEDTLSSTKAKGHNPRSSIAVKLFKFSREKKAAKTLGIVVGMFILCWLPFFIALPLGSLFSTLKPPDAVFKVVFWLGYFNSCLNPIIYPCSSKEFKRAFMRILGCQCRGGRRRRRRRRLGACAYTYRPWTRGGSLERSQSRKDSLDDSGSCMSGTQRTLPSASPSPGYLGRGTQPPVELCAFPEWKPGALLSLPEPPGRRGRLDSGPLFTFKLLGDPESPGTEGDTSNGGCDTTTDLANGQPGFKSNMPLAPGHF

[2] = molecular target: Carbonic anhydrase 2 (Homo sapiens, UniProt P00918); experiment: DRUGMATRIX: Carbonic Anhydrase II enzyme inhibition (substrate: 4-Nitrophenyl acetate (4-NPA)); type: tissue-based, Erythrocyte; settings: erythrocyte; Not Active = under 50% inhibition at 10 µM
[3] = molecular target: T2, Glucocorticoid receptor (Homo sapiens, UniProt P04150); settings: hela s3; note: in other assays of this panel Not Active means under 50% inhibition at 10 µM
T2 sequence (P04150 whole entry): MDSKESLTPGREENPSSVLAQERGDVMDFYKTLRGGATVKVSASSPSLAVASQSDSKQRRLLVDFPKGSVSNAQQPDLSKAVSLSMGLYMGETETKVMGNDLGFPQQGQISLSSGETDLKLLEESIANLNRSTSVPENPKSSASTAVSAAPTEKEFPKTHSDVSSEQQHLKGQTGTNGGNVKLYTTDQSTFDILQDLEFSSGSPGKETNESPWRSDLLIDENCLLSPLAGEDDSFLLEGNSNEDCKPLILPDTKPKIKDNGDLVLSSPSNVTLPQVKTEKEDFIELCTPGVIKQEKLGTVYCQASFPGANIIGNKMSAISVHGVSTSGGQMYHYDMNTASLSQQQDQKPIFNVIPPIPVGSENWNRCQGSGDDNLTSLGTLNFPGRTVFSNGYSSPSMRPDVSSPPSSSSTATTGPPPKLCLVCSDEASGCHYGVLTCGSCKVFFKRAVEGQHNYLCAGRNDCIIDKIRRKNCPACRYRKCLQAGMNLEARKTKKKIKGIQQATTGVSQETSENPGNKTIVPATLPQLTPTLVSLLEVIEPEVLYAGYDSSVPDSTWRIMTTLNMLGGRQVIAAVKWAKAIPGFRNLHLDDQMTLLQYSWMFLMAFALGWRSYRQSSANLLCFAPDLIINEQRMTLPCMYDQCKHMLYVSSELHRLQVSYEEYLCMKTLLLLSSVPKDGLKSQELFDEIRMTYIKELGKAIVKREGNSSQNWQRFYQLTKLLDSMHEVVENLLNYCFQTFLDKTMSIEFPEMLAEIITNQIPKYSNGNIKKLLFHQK

[4] = molecular target: Adenosine receptor A2a (Homo sapiens, UniProt P29274); experiment: DRUGMATRIX: Adenosine A2A radioligand binding (ligand: […]); type: cell membranes, HEK293, Membrane; settings: Not Active = under 50% inhibition at 10 µM
Chain of Adenosine receptor A2a (P29274 whole entry): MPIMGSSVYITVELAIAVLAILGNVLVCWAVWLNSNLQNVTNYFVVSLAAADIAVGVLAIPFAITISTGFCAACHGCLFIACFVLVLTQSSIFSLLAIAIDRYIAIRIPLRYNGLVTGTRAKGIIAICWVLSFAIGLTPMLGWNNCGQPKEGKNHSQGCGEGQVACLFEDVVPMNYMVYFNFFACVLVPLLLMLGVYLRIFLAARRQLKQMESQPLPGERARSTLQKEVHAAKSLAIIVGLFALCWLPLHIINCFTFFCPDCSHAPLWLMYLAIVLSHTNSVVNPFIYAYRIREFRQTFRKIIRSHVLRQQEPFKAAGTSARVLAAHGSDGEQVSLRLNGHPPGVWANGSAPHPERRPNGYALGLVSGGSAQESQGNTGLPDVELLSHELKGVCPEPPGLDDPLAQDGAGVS

[5] = DRUGMATRIX: Glutamate, AMPA radioligand binding (ligand: [3H] AMPA); type: cell membranes, Rattus norvegicus, Wistar, Cerebral cortex, Membrane; settings: Not Active = under 50% inhibition at 10 µM
[6] = molecular target: Cytochrome P450 3A4 (Homo sapiens, UniProt P08684); settings: bti-tn-5b1-4; note: in other assays of this panel Not Active means under 50% inhibition at 10 µM
Chain of Cytochrome P450 3A4 (P08684 whole entry): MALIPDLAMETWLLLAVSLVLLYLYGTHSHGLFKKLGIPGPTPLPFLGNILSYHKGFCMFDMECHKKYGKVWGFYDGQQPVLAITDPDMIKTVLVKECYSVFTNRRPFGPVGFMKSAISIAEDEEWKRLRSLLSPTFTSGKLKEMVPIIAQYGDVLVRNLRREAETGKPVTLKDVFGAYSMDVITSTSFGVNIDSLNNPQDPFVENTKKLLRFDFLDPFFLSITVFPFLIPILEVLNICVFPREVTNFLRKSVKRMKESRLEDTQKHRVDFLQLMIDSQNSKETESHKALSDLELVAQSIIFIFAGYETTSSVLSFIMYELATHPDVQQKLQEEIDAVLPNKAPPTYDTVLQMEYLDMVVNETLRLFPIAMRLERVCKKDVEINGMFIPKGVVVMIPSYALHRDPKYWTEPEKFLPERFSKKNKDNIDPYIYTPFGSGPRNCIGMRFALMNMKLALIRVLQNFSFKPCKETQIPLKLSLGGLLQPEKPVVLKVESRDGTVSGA

[7] = molecular target: Substance-P receptor (Homo sapiens, UniProt P25103); type: cell membranes, CHO, Membrane; settings: cho; note: in other assays of this panel Not Active means under 50% inhibition at 10 µM
Chain of Substance-P receptor (P25103 whole entry): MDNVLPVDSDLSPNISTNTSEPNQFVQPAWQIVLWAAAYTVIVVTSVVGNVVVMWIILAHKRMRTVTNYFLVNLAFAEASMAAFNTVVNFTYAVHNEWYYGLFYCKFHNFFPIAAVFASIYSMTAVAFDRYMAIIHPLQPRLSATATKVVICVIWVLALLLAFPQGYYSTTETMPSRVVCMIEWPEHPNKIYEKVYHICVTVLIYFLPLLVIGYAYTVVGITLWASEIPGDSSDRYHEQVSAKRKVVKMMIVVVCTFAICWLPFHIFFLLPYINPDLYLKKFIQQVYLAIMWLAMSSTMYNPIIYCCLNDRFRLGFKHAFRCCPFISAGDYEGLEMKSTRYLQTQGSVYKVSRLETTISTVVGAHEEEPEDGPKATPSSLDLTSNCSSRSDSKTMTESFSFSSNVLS

CN1C[C@@H]2C[C@H]1CN2c1cc2c(cc1F)c(=O)c(C(=O)O)cn2C1CC1 [DANOFLOXACIN]
Not Active: IC50 [1] | IC50 [2] | IC50 [3] | IC50 ([4]; hek293) | IC50 [5] | Ki [5] | IC50 [6] | Ki [6] | IC50 [7]

COc1cccc2c1C(=O)c1c(O)c3c(c(O)c1C2=O)C[C@@](O)(C(C)=O)C[C@@H]3O[C@H]1C[C@H](N)[C@H](O)[C@H](C)O1 [DAUNORUBICIN]
Not Active: IC50 [1] | IC50 [2] | IC50 [3] | IC50 ([4]; hek293) | IC50 [5] | Ki [5] | IC50 [6] | Ki [6] | IC50 [7]

O=C(O)c1cc(-c2ccc(F)cc2F)ccc1O [DIFLUNISAL]
Not Active: IC50 [1] | IC50 [2] | IC50 [3] | IC50 ([4]; hek293) | IC50 [5] | Ki [5] | IC50 [6] | Ki [6] | IC50 [7]

C[S+](C)[O-] [DIMETHYL SULFOXIDE]
Not Active: IC50 [1] | IC50 [2] | IC50 [3] | IC50 ([4]; hek293) | IC50 [5] | Ki [5] | IC50 [6] | Ki [6] | IC50 [7]

CC1=NN(c2ccccc2)C(=O)C1 [EDARAVONE]
Not Active: IC50 [1] | IC50 [2] | IC50 [3] | IC50 ([4]; hek293) | IC50 [5] | Ki [5] | IC50 [6] | Ki [6] | IC50 [7]

CN1CCN(c2c(F)cc3c(=O)c(C(=O)O)cn(CCF)c3c2F)CC1 [FLEROXACIN]
Not Active: IC50 [1] | IC50 [2] | IC50 [3] | IC50 ([4]; hek293) | IC50 [5] | Ki [5] | IC50 [6] | Ki [6] | IC50 [7]

O=c1[nH]c(=O)n([C@H]2C[C@H](O)[C@@H](CO)O2)cc1F [FLOXURIDINE]
Not Active: IC50 [1] | IC50 [2] | IC50 [3] | IC50 ([4]; hek293) | IC50 [5] | Ki [5] | IC50 [6] | Ki [6] | IC50 [7]

COC(=O)Nc1nc2cc(C(=O)c3ccc(F)cc3)ccc2[nH]1 [FLUBENDAZOLE]
Not Active: IC50 [1] | IC50 [2] | IC50 [3] | IC50 ([4]; hek293) | IC50 [5] | Ki [5] | IC50 [6] | Ki [6] | IC50 [7]

O=C(O)P(=O)(O)O [FOSCARNET]
Not Active: IC50 [1] | IC50 [2] | IC50 [3] | IC50 ([4]; hek293) | IC50 [5] | Ki [5] | IC50 [6] | Ki [6] | IC50 [7]

O=c1c(-c2ccc(O)cc2)coc2cc(O)cc(O)c12 [GENISTEIN]
9.79 µM: Ki ([4]; read-out: Ki)
Not Active: IC50 [1] | IC50 [2] | IC50 [3] | IC50 [5] | Ki [5] | IC50 [6] | Ki [6] | IC50 [7]
17.4 µM: IC50 ([4]; read-out: IC50)

CCC1=C(C)CN(C(=O)NCCc2ccc(S(=O)(=O)NC(=O)N[C@H]3CC[C@H](C)CC3)cc2)C1=O [GLIMEPIRIDE]
Not Active: IC50 [1] | IC50 [2] | IC50 [3] | IC50 ([4]; hek293) | IC50 [5] | Ki [5] | IC50 [6] | Ki [6] | IC50 [7]

Nc1cc(-c2ccncc2)c[nH]c1=O [INAMRINONE]
Not Active: IC50 [1] | IC50 [2] | IC50 [3] | IC50 ([4]; hek293) | IC50 [5] | Ki [5] | IC50 [6] | Ki [6] | IC50 [7]

CN1CCC(=C2c3ccccc3CC(=O)c3sccc32)CC1 [KETOTIFEN]
Not Active: IC50 [1] | IC50 [2] | IC50 [3] | IC50 ([4]; hek293) | IC50 [5] | Ki [5] | IC50 [6] | Ki [6] | IC50 [7]

C[N+](C)(C)C[C@H](O)CC(=O)[O-] [LEVOCARNITINE]
Not Active: IC50 [1] | IC50 [2] | IC50 [3] | IC50 ([4]; hek293) | IC50 [5] | Ki [5] | IC50 [6] | Ki [6] | IC50 [7]

CCn1cc(C(=O)O)c(=O)c2cc(F)c(N3CCNC(C)C3)c(F)c21 (stereo not drawn) [LOMEFLOXACIN]
Not Active: IC50 [1] | IC50 [2] | IC50 [3] | IC50 ([4]; hek293) | IC50 [5] | Ki [5] | IC50 [6] | Ki [6] | IC50 [7]

CN1CCCC(CN2c3ccccc3Sc3ccccc32)C1 (stereo not drawn) [MEPAZINE]
0.061 µM: IC50 ([1]; read-out: IC50)
Not Active: IC50 [2] | IC50 [3] | IC50 ([4]; hek293) | IC50 [5] | Ki [5] | IC50 [6] | Ki [6] | IC50 [7]
0.034 µM: Ki ([1]; read-out: Ki)

Cc1cccc(C)c1NC(=O)C1CCCCN1C (stereo not drawn) [MEPIVACAINE]
Not Active: IC50 [1] | IC50 [2] | IC50 [3] | IC50 ([4]; hek293) | IC50 [5] | Ki [5] | IC50 [6] | Ki [6] | IC50 [7]

CN(C)C(=N)NC(=N)N [METFORMIN]
Not Active: IC50 [1] | IC50 [2] | IC50 [3] | IC50 ([4]; hek293) | IC50 [5] | Ki [5] | IC50 [6] | Ki [6] | IC50 [7]

CC(C)(C)NCC(O)COc1cccc2c1CC(O)C(O)C2 (stereo not drawn) [NADOLOL]
Not Active: IC50 [1] | IC50 [2] | IC50 [3] | IC50 ([4]; hek293) | IC50 [5] | Ki [5] | IC50 [6] | Ki [6] | IC50 [7]

C[C@]12CC[C@H]3[C@@H](CCC4=CC(=O)CC[C@@H]43)[C@@H]1CC[C@@H]2O [NANDROLONE]
Not Active: IC50 [1] | IC50 [2] | IC50 [3] | IC50 ([4]; hek293) | IC50 [5] | Ki [5] | IC50 [6] | Ki [6] | IC50 [7]

CN(C)C(=O)Oc1cccc([N+](C)(C)C)c1.[Br-] [NEOSTIGMINE BROMIDE]
Not Active: IC50 [1] | IC50 [2] | IC50 [3] | IC50 ([4]; hek293) | IC50 [5] | Ki [5] | IC50 [6] | Ki [6] | IC50 [7]

NC(=O)c1cccnc1 [NIACINAMIDE]
Not Active: IC50 [1] | IC50 [2] | IC50 [3] | IC50 ([4]; hek293) | IC50 [5] | Ki [5] | IC50 [6] | Ki [6] | IC50 [7]

CN1C(=O)CN=C(c2ccccc2)c2cc([N+](=O)[O-])ccc21 [NIMETAZEPAM]
Not Active: IC50 [1] | IC50 [2] | IC50 [3] | IC50 ([4]; hek293) | IC50 [5] | Ki [5] | IC50 [6] | Ki [6] | IC50 [7]

COc1ccc2c(c1OC)C(=O)O[C@@H]2[C@H]1c2c(cc3c(c2OC)OCO3)CCN1C [NOSCAPINE]
Not Active: IC50 [1] | IC50 [2] | IC50 [3] | IC50 ([4]; hek293) | IC50 [5] | Ki [5] | IC50 [6] | Ki [6] | IC50 [7]
